Data reported in patent publication US20220378786A1, “METHODS OF DEFINING FUNCTIONAL CHANGE AND SLOWING PROGRESSION IN CHRONIC LIVER DISEASE” (priority 2021, published 2022).

System: hepatic function and portal-systemic shunting in subjects with CLD
Experiment: HepQuant SHUNT test (DSI and SHUNT %) relative to concomitant drug therapy in the SHUNT-V clinical study
Assay type: in vivo, human
Conditions: for Coefficient (Δ DSI score): multi-variable regression analysis of prescribed medications, Base DSI 27.0682; for ΔDSI: univariable regression analysis, 270 SHUNT-V subjects with CLD, on drug vs not on drug, lower DSI = better hepatic function
Excerpt: For example, a HepQuant® cholate liver function test (HepQuant, LLC) can be used to determine the presence and severity of liver diseases. A HepQuant® test can be a HepQuant® DSI test, HepQuant® SHUNT test or a HepQuant® STAT test. […] The term “SHUNT test” refers to a previously disclosed QLFT (quantitative liver function test) used as a comprehensive assessment of hepatic blood flow and liver function. The SHUNT test may be used to determine plasma clearance of orally and intravenously administered distinguishable cholic acids in subjects with and without chronic liver disease. SHUNT fraction or percent quantifies the spillover of the PO d4-cholate into the systemic circulation from the ratio of the clearance of the intravenously administered 13C-cholate to the clearance of the orally administered d4-cholate. In the SHUNT test, at least 5 blood samples are analyzed which have been drawn from a patient at intervals over a period of about 90 minutes after oral and intravenous administration of differentiable cholates. The SHUNT test is disclosed in Everson et al., U.S. Pat. […] The “SHUNT test value” refers to a number (in %). The term “SHUNT %” represents a quantitative measurement of portal-systemic shunting. SHUNT % is a measurement of the percentage of spillover of the orally administered d4-cholate. The first-pass hepatic elimination of cholate in percent of orally administered cholate is defined as (100%—SHUNT). Analysis of samples for stable isotopically labeled cholates is performed by, e.g., GC-MS, following sample derivitization, or LC-MS, without sample derivitization, or LC-MS/MS, or MS/MS. The ratio of the AUCs of orally to intravenously administered cholic acid, corrected for administered doses, defines cholate shunt. The cholate shunt can be calculated using the formula: AUCoral/AUCiv×Doseiv/Doseoral×100%, wherein AUCoral is the area under the curve of the serum concentrations of the orally adminstered cholic acid and AUCiv is the area under the curve of the intravenously administered cholic acid. The SHUNT test allows measurement of first-pass hepatic elimination of bile acids from the portal circulation. The term “DSI test” refers to a cholate Disease Severity Index test which is derived from one or more liver function test results based on hepatic blood flow. The DSI score is a function of the sum of cholate clearances from systemic and portal circulations adjusted to disease severity ranging from healthy subjects to end stage liver disease. DSI is a score without units representing a quantitative measurement of liver function. A disease severity index (DSI) value may be obtained in a patient by a method comprising (a) obtaining one or more liver function test values in a patient having or at risk of a chronic liver disease, wherein the one or more liver function test values are obtained from one or more liver function tests selected from the group consisting of SHUNT, portal hepatic filtration rate (portal HFR), and systemic hepatic filtration rate (systemic HFR); and (b) employing a disease severity index equation (DSI equation) to obtain a DSI value in the patient, wherein the DSI equation comprises one or more terms and a constant to obtain the DSI value, wherein at least one term of the DSI equation independently represents a liver function test value in the patient, or a mathematically transformed liver function test value in the patient from step; and the at least one term of the DSI equation is multiplied by a coefficient specific to the liver function test. DSI is an index, or score, that encompasses the cholate clearances from both systemic and portal circulations. DSI has a range from 0 (healthy) to 50 (severe end-stage disease) and is calculated from both HFRs. […] DSI test methods and equations are disclosed in U.S. Pat. Nos. 9,091,701, 9,759,731, 10,520,517, each of which is incorporated herein by reference in its entirety. Additional DSI equations have been developed and are provided herein.

[1] = ON-OFF drug, subset of 130 subjects taking anti-diabetic drug therapies (Table 6, FIG. 18)
[2] = multi-variable regression with statins, metformin, diabetes diagnosis and NASH diagnosis

| Compound | Coefficient (Δ DSI score) | ΔDSI | mean difference in DSI [1] | mean difference in SHUNT [1] [%] | Decline in DSI [2] | Decline in SHUNT % [2] [%] | Resultant DSI (multi-variable regression, Base DSI 27.0682 plus coefficients, cumulative down the table (metformin line includes the statin coefficient)) | % Reduction in DSI (multi-variable regression, relative to Base DSI 27.0682, cumulative down the table (metformin line includes statins)) [%] |
| --- | --- | --- | --- | --- | --- | --- | --- | --- |
| CCc1ccc(CCOc2ccc(CC3SC(=O)NC3=O)cc2)nc1 (centres unmarked) [Pioglitazone] | 0.2725 | −2.4995 |  |  |  |  |  |  |
| Vitamin E | −1.6505 | −2.0475 |  |  |  |  |  |  |
| Insulin: insulin, anti-diabetic drug therapy | −0.7947 | −2.746 |  |  |  |  |  |  |
| CN(C)C(=N)N=C(N)N [Metformin, metformin] | −2.2637 | −4.1777 | −2.4 | −7.4 | −2.4337 | −5.9 | 21.55 | −20.4 |
